This note sets out measurements from BindingDB's records for doi:10.1021/jm00026a002 (Upjohn, 1995).

Structures are written as SMILES.

For the test, the target named is T1, Dimer of Gag-Pol polyprotein [489-587] (Human immunodeficiency virus 1, UniProt P12497).
T1 construct: 489-587
The experiment in a line: Protease Inhibition Assay. The following applies: pH 5; 22 °C. From the text:
HIV-1 protease was purified and refolded from E. coli inclusion bodies. […] In the presence of HIV-l protease, the substrate is rapidly cleaved into two parts. The biotinylated amino terminal fragment binds to the avidin beads while the FITC-containing carboxy1 terminal fragment is removed through the membrane. […] The bound fluorescence is obtained by processing on an IDEXX Screen Machine. Determination of Ki values with this assay requires analysis under conditions in which substrate concentration resides substantially below Km and the inhibitor concentrations greatly exceeds the Ki value and the enzyme concentration.

In turn, `O=c1oc2c(c(O)c1[C@H](c1cccc(NS(=O)(=O)c3ccccc3)c1)C1CC1)CCCCCC2` [N-{3-[(S)-cyclopropyl({4-hydroxy-2-oxo-2H,5H,6H,7H,8H,9H,10H-cycloocta[b]pyran-3-yl})methyl]phenyl}benzenesulfonamide] had a Ki of 3 nM.

For orientation: Ki means the dissociation constant of the complex between target and ligand, obtained from inhibition or displacement.
